In PubChem BioAssay (NCI):
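All cell lines were grown in 96-well plates and treated with compound for 48 hours. TGI is the concentration that stops growth completely.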

Experiments:
Assay in all cases: inhibition of tumour cell growth, NCI panel, 48 h
A549 NSCLC = test system: A549 NSCLC
ACHN renal = test system: ACHN renal
BT-549 breast = test system: BT-549 breast
CAKI-1 renal = test system: CAKI-1 renal
EKVX NSCLC = test system: EKVX NSCLC
HL-60(TB) leukemia = test system: HL-60(TB) leukemia
HOP-92 NSCLC = test system: HOP-92 NSCLC
HT29 colon = test system: HT29 colon
KM12 colon = test system: KM12 colon
M14 melanoma = test system: M14 melanoma
MCF7 breast = test system: MCF7 breast
RPMI-8226 leukemia = test system: RPMI-8226 leukemia
SF-295 CNS = test system: SF-295 CNS
SK-MEL-2 melanoma = test system: SK-MEL-2 melanoma
SK-MEL-5 melanoma = test system: SK-MEL-5 melanoma
SN12C renal = test system: SN12C renal
SNB-19 CNS = test system: SNB-19 CNS
T-47D breast = test system: T-47D breast
TK-10 renal = test system: TK-10 renal
HOP-62 NSCLC = test system: HOP-62 NSCLC

Row | SMILES | TGI (A549 NSCLC) [µM] | TGI (ACHN renal) [µM] | TGI (BT-549 breast) [µM] | TGI (CAKI-1 renal) [µM] | TGI (EKVX NSCLC) [µM] | TGI (HL-60(TB) leukemia) [µM] | TGI (HOP-92 NSCLC) [µM] | TGI (HT29 colon) [µM] | TGI (KM12 colon) [µM] | TGI (M14 melanoma) [µM] | TGI (MCF7 breast) [µM] | TGI (RPMI-8226 leukemia) [µM] | TGI (SF-295 CNS) [µM] | TGI (SK-MEL-2 melanoma) [µM] | TGI (SK-MEL-5 melanoma) [µM] | TGI (SN12C renal) [µM] | TGI (SNB-19 CNS) [µM] | TGI (T-47D breast) [µM] | TGI (TK-10 renal) [µM] | TGI (HOP-62 NSCLC) [µM]
1 | Cc1sc(N)c(S(=O)(=O)c2ccccc2)c1C | > 100 | > 100 | > 100 | > 100 | > 100 | > 100 | > 100 | > 100 | > 100 | > 100 | > 100 | > 100 | > 100 | > 100 | > 100 | > 100 | > 100 | > 100 | > 100 | 
2 | Nc1nc(NCC2(CO)CCC2)cc(=O)[nH]1 | > 100 |  | > 100 | > 100 | > 100 | > 100 | > 100 | > 100 | > 100 | > 100 | > 100 | > 100 | > 100 | > 100 | > 100 | > 100 | > 100 | > 100 |  | > 100
3 | O=C1CC(c2ccc(Cl)cc2)C2(C(=O)NC(=O)NC2=O)C(c2ccc(Cl)cc2)C1 (configuration not stated) |  | > 75 | > 75 | > 75 | > 75 | > 75 | 54.9 | > 75 | > 75 | > 75 | > 75 | 32.6 | > 75 | 38.4 | 47.1 | 54 | > 75 | > 75 | > 75 | 69
4 | Cn1c(=O)cc(NCCc2ccccc2)[nH]c1=O | > 100 | > 100 | > 100 | > 100 | > 100 |  | > 100 | 78.1 | > 100 | > 100 | > 100 | > 100 | 97.6 | > 100 | > 100 | > 100 | > 100 | > 100 | > 100 | > 100
5 | CC1(C)CCCOc2cccc(c2)OCCCC(C)(C)C1=O | > 100 | > 100 | 89.3 | > 100 | > 100 | > 100 | 99.1 | 43.2 | > 100 | > 100 | > 100 | > 100 |  | 54.9 | 35.8 | > 100 | > 100 | > 100 | > 100 | > 100
6 | CCCCCCCCCCCCCCCC(=O)OC(COC(C)=O)CO[P+](=O)O (configuration not stated) | 36.5 | 92.8 | > 100 | > 100 | > 100 | > 100 | 34 |  | 48.4 | 28.4 | > 100 | > 100 | 35.4 | 40.6 | > 100 | > 100 | > 100 | > 100 | > 100 | 
7 | Cc1cc(=O)oc2c3c(ccc12)OC(c1ccc(Br)cc1)CC3=O (configuration not stated) | 34.8 | 29.4 | 11.4 | 43.8 | 31.8 |  |  | 32 | 33.1 | 31.6 | 12.7 | > 100 | 23.9 | 33.5 | 24.5 | > 100 | 20.5 | 1.18 | 27.1 | 21.8
8 | O=C(O)c1cc(O)c2c(c1)C([C@@H]1c3cccc(O)c3C(=O)c3c(O)cc(C(=O)O)cc31)c1cccc(O)c1C2=O (some centres not stated) | > 100 | > 100 | > 100 | > 100 | > 100 | 85.5 | 57.7 | > 100 | 44.3 |  | 91.8 | > 100 | > 100 |  | 32.2 | > 100 | > 100 | > 100 | > 100 | 
9 | O=[N+]([O-])C(=C(Nc1ccccc1)Nc1ccccc1)/C(Cl)=C(\Cl)Br | 51.1 | 25 | 60.5 |  | 32.1 | 4.41 | 33.6 | 29.7 | 26.2 | 20.1 | 33.9 | 18.8 | 29.5 | 38.3 |  | 26.6 |  | 44.8 |  | 55.1
10 | COC(=O)c1ccccc1C1CN=NC12Cc1cc(C)c(C)cc1C2=O (configuration not stated) | > 100 | > 100 | > 100 | > 100 | > 100 | 46.9 | 78.9 | > 100 | > 100 | > 100 | 65 |  | > 100 | > 100 | 38.1 | > 100 | > 100 | > 100 | > 100 | > 100
11 | CCOC(=O)C1=COC(C)(c2ccccc2)CC1=O (configuration not stated) | > 100 | > 100 | > 100 | > 100 | > 100 |  |  | > 100 | > 100 | > 100 | > 100 | > 100 | > 100 | > 100 | > 100 | > 100 | > 100 | > 100 | > 100 | > 100
12 | COc1ccc2c(c1)CCC1=C/C(=N\NC(N)=O)CCC12C (configuration not stated) | > 10 | > 10 | > 10 | > 10 |  | > 10 | > 10 | > 10 | > 10 | > 10 | > 10 | > 10 | > 10 |  | > 10 | > 10 | > 10 | > 10 | > 10 | > 10
13 | Nc1cc(N2CCOCC2)nc(=O)n1-c1ccc(Cl)cc1 | > 100 | > 100 | > 100 | > 100 | > 100 | > 100 | > 100 | > 100 | > 100 | > 100 | > 100 | > 100 | > 100 | > 100 | > 100 | > 100 | > 100 | > 100 |  | > 100
